Earlier results as cited in patent US9044508B2, “Concentrated aqueous azalide formulations” (INSITE VISION CORPORATION, priority 2013, dated 2015).

Settings: aqueous formulation

SMILES: CC[C@H]1OC(=O)[C@H](C)[C@@H](O[C@H]2C[C@@](C)(OC)[C@@H](O)[C@H](C)O2)[C@H](C)[C@@H](O[C@@H]2O[C@H](C)C[C@H](N(C)C)[C@H]2O)[C@](C)(O)C[C@@H](C)CN(C)[C@H](C)[C@@H](O)[C@]1(C)O [azithromycin, N-methyl-1′-aza-10-deoxo-10-dihydroerythromycin]
- pH of maximum stability: about 6.3
